The record followed here is patent EP0536603A1, “N-Methyl-nimodipine, process for its preparation, and its use as cerebral vasodilator” (BAYER AG, priority 1991, dated 1993).

One data set relates to Ratten. Put plainly: Rat swim test (Porsolt), antidepressant effect. The format is in vivo. Particulars: rats. As for the experimental part:
Die vorzügliche Eignung von N-Methyl-Nimodipin als Prodrug für Nimodipin zeigt sich auch in seiner antidepressiven Wirkung. Im Rattenschwimmtest (vgl. R.D. Porsolt et al., European Journal of Pharmacology 47; 379 bis 391) zeigen Ratten, die 20 mg der erfindungsgemäßen Verbindung per os appliziert bekommen, eine um ca. 20 % reduzierte Immobilitätsphase im Vergleich zur Kontrolle (n = 6).

The nature of data set [1]: Plasma levels after oral administration. Type of data set: in vivo.

Regarding `COCCOC(=O)C1=C(C)N(C)C(C)=C(C(=O)OC(C)C)C1c1cccc([N+](=O)[O-])c1` (racemic) [N-Methyl-nimodipin, (±)-1,2,6-Trimethyl-4-(3-nitrophenyl)-1,4-dihydropyridin-3,5-dicarbonsäure-isopropyl-2-methoxyethyl-ester], in the data set on Ratten (20 mg per os, n = 6), the “reduzierte Immobilitätsphase im Vergleich zur Kontrolle” value is listed as “ca. 20%”. Also, in data set [1] (oral administration of N-Methyl-nimodipin, after 15 minutes, compared with plasma levels after multiple administration of corresponding amounts of Nimodipin), the “Plasmaspiegel von Nimodipin und bekannten Nimodipinmetaboliten” value is “mindestens so hoch sind wie die entsprechenden Plasmaspiegel nach Mehrfachapplikation entsprechender Nimodipinmengen”. Besides, in data set [1] (oral administration, same time point (15 minutes), relative to the plasma levels of Nimodipin and metabolites), the “Plasmakonzentration an unverändertem N-Methyl-Nimodipin” value was “etwa doppelt so hohe Plasmakonzentration”.
For `COCCOC(=O)C1=C(C)NC(C)=C(C(=O)OC(C)C)C1c1cccc([N+](=O)[O-])c1` (racemic) [Nimodipin, (±)2,6-Dimethyl-4-(3-nitrophenyl)-1,4-dihydropyridin-3,5-dicarbonsäure-isopropyl-2-methoxyethyl-ester], in the data set on Ratten (corresponding amount of Nimodipin, compared with N-Methyl-Nimodipin), the “Immobilitätsphase im Rattenschwimmtest, in words” value is listed as “vergleichbare Ergebnisse”.
